Reference: PubChem BioAssay (NCI)
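These data come from cells grown in 96-well plates and exposed to compound for 48 hours at five concentrations. GI50 marks 50% less growth. TGI is the concentration that stops growth completely.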

How the values were obtained:
Assay in all cases: inhibition of tumour cell growth, NCI panel, 48 h
[1] = system: 786-0 renal
[2] = system: A498 renal
[3] = system: A549 NSCLC
[4] = system: ACHN renal
[5] = system: BT-549 breast
[6] = system: CAKI-1 renal
[7] = system: CCRF-CEM leukemia
[8] = system: COLO 205 colon
[9] = system: DU-145 prostate
[10] = system: EKVX NSCLC
[11] = system: HCC-2998 colon
[12] = system: HCT-116 colon
[13] = system: HCT-15 colon
[14] = system: HL-60(TB) leukemia
[15] = system: HOP-62 NSCLC
[16] = system: HOP-92 NSCLC
[17] = system: HS 578T breast
[18] = system: HT29 colon
[19] = system: IGROV1 ovarian
[20] = system: K-562 leukemia
[21] = system: KM12 colon
[22] = system: LOX IMVI melanoma
[23] = system: M14 melanoma
[24] = system: MALME-3M melanoma
[25] = system: MCF7 breast
[26] = system: MDA-MB-231 breast
[27] = system: MDA-MB-435
[28] = system: MOLT-4 leukemia
[29] = system: NCI-H226 lung
[30] = system: NCI-H23 lung
[31] = system: NCI-H460 lung
[32] = system: NCI-H522 lung
[33] = system: NCI/ADR-RES ovarian
[34] = system: OVCAR-3 ovarian
[35] = system: OVCAR-4 ovarian
[36] = system: OVCAR-5 ovarian
[37] = system: OVCAR-8 ovarian
[38] = system: PC-3 prostate
[39] = system: RPMI-8226 leukemia
[40] = system: RXF 393 renal
[41] = system: SF-268 CNS
[42] = system: SF-295 CNS
[43] = system: SF-539 CNS
[44] = system: SK-MEL-2 melanoma
[45] = system: SK-MEL-28 melanoma
[46] = system: SK-MEL-5 melanoma
[47] = system: SK-OV-3 ovarian
[48] = system: SN12C renal
[49] = system: SNB-19 CNS
[50] = system: SNB-75 CNS
[51] = system: SR leukemia
[52] = system: SW-620 colon
[53] = system: T-47D breast
[54] = system: TK-10 renal
[55] = system: U251 CNS
[56] = system: UACC-257 melanoma
[57] = system: UACC-62 melanoma
[58] = system: UO-31 renal

For `COc1c(B(O)O)cc(F)cc1-c1nc2ccc3[nH]ncc3c2c2c1CCCC2`, the GI50 [1] was 0.279 µM, the TGI [1] was 5.84 µM and the GI50 [2] was 0.0664 µM. For the same molecule, the TGI [2] was 2.52 µM, the GI50 [3] was 1.17 µM and the TGI [3] was 16 µM. For the same molecule, the GI50 [4] was 1.12 µM, the TGI [4] was 16.3 µM and the GI50 [5] was 0.044 µM. The TGI [5] was 1.76 µM, the GI50 [6] was < 0.01 µM and the TGI [6] was 0.134 µM. The GI50 [7] was 0.53 µM, the TGI [7] was > 38.6 µM and the GI50 [8] was 1.61 µM. For the same molecule, the TGI [8] was 4.97 µM, the GI50 [9] was 1.7 µM and the TGI [9] was 12.9 µM. For the same molecule, the GI50 [10] was 2.37 µM, the TGI [10] was 10.2 µM and the GI50 [11] was 2.08 µM. The TGI [11] was 5.61 µM, the GI50 [12] was 0.322 µM and the TGI [12] was 10.3 µM. For the same molecule, the GI50 [13] was 2.12 µM, the TGI [13] was 9.44 µM and the GI50 [14] was 0.112 µM. The TGI [14] was 10.5 µM, the GI50 [15] was < 0.0212 µM and the TGI [15] was 11.5 µM. For the same molecule, the GI50 [16] was < 0.01 µM, the TGI [16] was 14.4 µM and the GI50 [17] was 0.0173 µM. The TGI [17] was 5.43 µM, the GI50 [18] was 3.07 µM and the TGI [18] was 21.1 µM. It also gave a GI50 [19] of 1.49 µM, a TGI [19] of 11.2 µM and a GI50 [20] of 3.27 µM. For the same molecule, the TGI [20] was > 100 µM, the GI50 [21] was 1.26 µM and the TGI [21] was 7.62 µM. The GI50 [22] was 0.727 µM, the TGI [22] was 3.43 µM and the GI50 [23] was 2.64 µM. It also gave a TGI [23] of 5.44 µM, a GI50 [24] of 3.54 µM and a TGI [24] of 6.82 µM. The GI50 [25] was 1.53 µM, the TGI [25] was 6.57 µM and the GI50 [26] was < 0.01 µM. It also gave a TGI [26] of 15 µM, a GI50 [27] of 1.78 µM and a TGI [27] of 3.6 µM. The GI50 [28] was 1.18 µM, the TGI [28] was > 100 µM and the GI50 [29] was 2 µM. It also gave a TGI [29] of 7.85 µM, a GI50 [30] of 2.02 µM and a TGI [30] of 7.61 µM. For the same molecule, the GI50 [31] was 0.822 µM, the TGI [31] was 10.5 µM and the GI50 [32] was 1.03 µM. For the same molecule, the TGI [32] was 11.7 µM, the GI50 [33] was 2.03 µM and the TGI [33] was 13.7 µM. For the same molecule, the GI50 [34] was 2.95 µM, the TGI [34] was 10.2 µM and the GI50 [35] was 3.8 µM. For the same molecule, the TGI [35] was 12.1 µM, the GI50 [36] was 2.46 µM and the TGI [36] was 16.9 µM. For the same molecule, the GI50 [37] was 1.55 µM, the TGI [37] was 17.7 µM and the GI50 [38] was 1.9 µM. It also gave a TGI [38] of 11.3 µM, a GI50 [39] of 1.12 µM and a TGI [39] of 5.58 µM. The GI50 [40] was < 0.01 µM, the TGI [40] was 0.294 µM and the GI50 [41] was 1.42 µM. It also gave a TGI [41] of 10.5 µM, a GI50 [42] of 1.76 µM and a TGI [42] of 10.8 µM. The GI50 [43] was 0.0686 µM, the TGI [43] was 2.24 µM and the GI50 [44] was 2.67 µM. The TGI [44] was 7.05 µM, the GI50 [45] was 2.69 µM and the TGI [45] was 8.47 µM. The GI50 [46] was 1.99 µM, the TGI [46] was 7.34 µM and the GI50 [47] was 1.13 µM. The TGI [47] was 13.9 µM, the GI50 [48] was 1.15 µM and the TGI [48] was 15.3 µM. For the same molecule, the GI50 [49] was 1.73 µM, the TGI [49] was 13 µM and the GI50 [50] was < 0.01 µM. For the same molecule, the TGI [50] was 0.0607 µM, the GI50 [51] was 0.108 µM and the TGI [51] was > 38.6 µM. For the same molecule, the GI50 [52] was 0.66 µM, the TGI [52] was 11.2 µM and the GI50 [53] was 2.62 µM. For the same molecule, the TGI [53] was 8.99 µM, the GI50 [54] was < 0.01 µM and the TGI [54] was 9.43 µM. It also gave a GI50 [55] of 1.6 µM, a TGI [55] of 13.1 µM and a GI50 [56] of 3.65 µM. For the same molecule, the TGI [56] was 12.5 µM, the GI50 [57] was 1.55 µM and the TGI [57] was 5.85 µM. For the same molecule, the GI50 [58] was 0.045 µM and the TGI [58] was 9.21 µM.
